Experimental data: patent US20090318449A1, “THERAPEUTIC LACTAMS” (ALLERGAN, INC., priority 2008, published 2009)

Test system: lashes and adjacent hairs of glaucoma patients
Assay: Eyelash/hair growth observed in glaucoma patients treated in one eye
Assay type: in vivo, humans
Conditions: glaucoma patients treated in only one eye
Text: In the course of treating patients having glaucoma, treatment may only be appropriate in one eye. […] The lash appearance on the lids of the treated eyes would have appeared quite attractive if it represented a bilateral phenomenon. As a result of its asymmetric nature, the long lashes on one side could be construed as disturbing from a cosmetic standpoint. A systemic examination was preformed as a result of the asymmetric phenomenon. It soon became apparent that this altered appearance was not an isolated finding. […] Definite differences could be identified to varying degrees in the lashes and adjacent hairs of all patients who were taking the drug on a unilateral basis for longer than 6 months.
The changes in the lashes were apparent on gross inspection in several patients once attention was focused on the issue. In those with light colored hair and lashes, the differences were only seen easily with the aid of the high magnification and lighting capabilities of the slit lamp biomicroscope. In the course of glaucoma follow-up examination, attention is generally immediately focused on the eye itself. As a result of the high power magnification needed only one eye is seen at a time and the eye is seen at a high enough power that the lashes are not in focus. […]

Structure (SMILES): CCNC(=O)CCC/C=C\C[C@@H]1[C@@H](/C=C/[C@@H](O)CCc2ccccc2)[C@H](O)C[C@@H]1O [bimatoprost]
- lash appearance, treated eye versus non-treated eye: longer, thicker, and fuller
